One assay relates to MAb BCP8. Description: Competitive inhibition of binding of MAb BCP8 to class I MHC isolated MUC-1 peptides (ELISA). The following applies: synthetic peptide 0-10 μM; MCF-7 derived fraction (FIG. 9). The procedure:
Competitive inhibition of binding of MAb BCP8 to class I MHC isolated putative MUC-1 peptide motifs by synthetic MUC-1 peptides. To show the specificity of binding of the BCP8 antibody to the peptides isolated from MCF-7, a fraction eluting at 19 min after secondary HPLC was diluted ⅙ with PBS and coated on microtiter wells overnight, then blocked as described above. The wells were incubated with 2 ng of BCP8 in 100 μl ELISA diluent, containing also amounts of peptide varying from 0-10 μM. Peptides used in this experiment were the 9 mers (SEQ ID NO: 3), […] and […] (SEQ ID NO: 17), and the 16 mer (SEQ ID NO: 15) […]. The ELISA was then processed as described above.

The test system of assay [1] is T2 cells loaded with MUC-1 synthetic peptides. Description: Cytotoxic T lymphocyte assay (51Cr release) against peptide loaded T2 targets, Example 2. It is filed as cell-based, human. The following applies: T-cells of three HLA.A2+ donors primed with liposomal 25 aa MUC-1 lipopeptide, 5 h 51Cr release, peptide 200 μM. How it is done: Cytotoxic T lymphocyte assays. For the CTL assay, three (HLA.A2^+) normal donors' PBLs were used. The T-cells were grown for two weeks in bulk cultures as described above. At the end of two weeks, live T-cells were harvested from flasks and counted. T2 cells used as CTL targets were loaded overnight with various MUC-1 synthetic peptides at 200 μM in presence of exogenous β2m. Houbiers et al., Eur. J. Immunol 23:2072-2077 (1993); Stauss et al., Proc. Natl. Acad. Sci. U.S.A. 89:7871-7875 (1992). These peptide loaded T2 target cells were then loaded with ^51Cr (using NaCrO4) for 90 min and washed extensively. CTL assays were performed as previously described. Agrawal et al., supra. Percent specific killing was calculated as: experimental release—spontaneous release/maximum release—spontaneous release×100. The effector versus target ratio was used as (1, 10, 50, 100 and 150). Each group was set up in four replicate and mean percent specific killing was calculated. As negative control OVA peptide […] loaded target T2 cells were used in the cytotoxic assay and percent specific killing of […] loaded targets was subtracted from each data point to obtain MUC-1 peptide specific percent specific killing.
We performed in vitro CTL assays in order to determine whether the MUC-1 peptides shown to be capable of binding to HLA.A2 on T2 mutant cells can be recognized as CTL epitopes in the context of MHC class I HLA.A2 molecules on target cells. T-cells from PBLs of three HLA.A2^+ donors were primed in vitro against MUC-1 antigen using a lipopeptide derivative of 25 amino acid MUC-1 peptide encapsulated in liposome pulsed autologous PBLs as APCs. The stimulated T-cells were harvested following two weeks in vitro culture (with 2 weekly restimulations) and tested for their cytotoxic activity against MUC-1 derived synthetic peptide (9 mers and 7 mer) loaded T2 cells as target in a 5 h ^51Cr release assay (FIG. 6). […] The targets loaded with 7 mer TSA . . . peptide were weakly killed by donor 2 at higher E/T ratios.

Assay [2] deals with T1, HLA.A2 on T2 mutant cells (Homo sapiens, UniProt P04439, D140Y/D185E/D98H/E176V/E277Q/G131W/G231S/I119V/I121R/I166T/I218V/L300P/L318F/N151K/N90K/P208A/P217A/Q86G/Q94H/R138H/R169H/T345S). Description: T2 feeding experiment and FACS analysis (HLA.A2 upregulation, MA2.1 staining), Example 2. In kind it is cell-based.
The subject of assay [3] is T-cells from PBLs of normal donors. Description: T-cell proliferation assay (3H-Tdr incorporation) of T-cells stimulated twice with liposomal antigen loaded autologous APCs. It is filed as cell-based, human. The following applies: T-cells stimulated twice in two weeks with BLP-25 liposome loaded autologous PBLs; antigen presented on autologous APCs. How it is done:
T-cell Culture in Bulk For T-cell enrichment, 30-50×10^6 PBLs were suspended in 1 mL AIM-V media and loaded on media pre-conditioned 5 mL nylon wool columns (Robins Scientific, Sunnyvale, Calif.). The loaded nylon wool columns were incubated at 37° C. for 45 minutes and then the non-adhering T-cells were eluted by washing with warm (37° C.) AIM-V media. Initially, the bulk culture was started in a 25 cm^2 tissue culture sterile flask (Corning Glass, Corning, N.Y.). 10^7 T-cells were cultured in the presence of 10^7 antigen loaded, gamma-irradiated autologous PBLs in a total volume of 10 mL in AIM-V media for 16-24 hours, at which time the culture was fed with human rIL-7 (10 μg/mL) and human rIL-12 (100 pg/ml), and left for 6-8 more days. At the end of the 7-10 days of culture, surviving t-cells were collected and re-stimulated with autologous APCs loaded with liposomal antigen. After two consecutive cycles of re-stimulation (14-16 days), the T-cells were collected, and counted. The supernatant was collected from bulk cultures at 14 days for cytokine screening and kept frozen at −80° C. until used for the assay. Repeated freeze/thaw was prevented. […] Incorporation of ^3H-Tdr into DNA of proliferating cells was measured after harvesting the plates and counting in the matrix beta counter. […]

Assay [4] deals with T cells stimulated with autologous PBLs loaded with liposomes containing BLP-25. Description: Cytokine ELISA of supernatant of microtiter wells in the proliferation assay. In kind it is cell-based, human. The following applies: soluble peptide, 100 ug; T cells pre-stimulated with BLP-25 liposomes 100 ug; 6th day of culture. How it is done: T-Cell Proliferation Assay T-cells (5×10^4-1×10^5) obtained at the end of 14-16 days of culture, as described above, were incubated in the presence of various antigen-containing liposomes, soluble BP24, soluble BLP-24M, loaded or unloaded autologous liposomes, and mitomycin C treated APCs (5×10^4-10^5), in a total volume of 200 μL in AIM-V medium, in 96-well flat-bottom tissue culture plates—for a period of 5 days at 37° C., 7% CO2 and moisture. Each group was cultured in 5 replicate wells. At the end of 5 days, 100 μL of culture supernatant was collected from each well and tested for the presence of γ-IFN or IL-4 by ELISA, as described below. After collecting the supernatant for cytokines, 1 μCi^3H-Tdr (Amersham Canada Limited, Oaksville, Ontario) was added into each well and incubated overnight. Incorporation of ^3H-Tdr into DNA of proliferating cells was measured after harvesting the plates and counting in the matrix beta counter. […]
For the γ-IFN assay, 96-well Nunc ELISA plates were coated overnight at 4° C. with mouse anti-human γ-IFN monoclonal antibody (Genzyme, Cambridge, Mass.) in NaHCO3 buffer (0.1 M, pH 9.5). […] At this time, the plates were read in the ELISA reader (Molecular Devices Corporation, Menlo Park, Calif.) in kinetic mode [Molecular Thermomax dual wavelength (405-490 nm)]. […]

Assay [5] concerns the target T1, HLA.A2 on T2 mutant cells. Description: MUC-1 peptide-mediated upregulation of HLA.A2 expression on T2 cells, Example 1. It is filed as cell-based. The conditions noted are these: FIG. 6A. The text has this: FIG. 6A: Upregulation of HLA.A2 expression on T2 mutant cells by MUC-1 peptides […] (SEQ ID NO: 1) and […] (SEQ ID NO: 2). […] was used as a positive control (SEQ ID NO: 1) and H-2Kb (61-69) peptide (SEQ ID NO: 3) was used as negative control for HLA-A2 upregulation. The x-axis represents fluorescence intensity and the y-axis represents the cell number. Markers M1 and M2 were set to visually examine the increase expression of HLA.A2. Mean channel intensity (MCI) is shown in each histogram.
Cytotoxic T lymphocyte assays. For the CTL assay, three (HLA.A2^+) normal donors' PBLs were used. The T-cells were grown for two weeks in bulk cultures as described above. At the end of two weeks, live T-cells were harvested from flasks and counted. The targets were mutant T2 cells. Houbiers et al., Eur. J. Immunol 23:2072-2077 (1993); Stauss et al., Proc. Natl. Acad. Sci. U.S.A. 89:7871-7875 (1992). The MUC-1 peptide-mediated upregulation of HLA.A2 expression on T2 cells was examined using the MUC-1 nine-mer peptides (SEQ ID NO: 25) […] and […] using known methods. Townsend et al., Nature 346:476 (1989). […] Percent specific killing was calculated as: experimental release—spontaneous release/maximum release—spontaneous release×100. […] Each group was set up in four replicate and mean percent specific killing was calculated.

The record followed here is patent publication US6600012B1, “Lipid-modified muc-1 derivatives” (Biomira, Inc., priority 1997, dated 2003).

GVTSAPDTR [MUC-1 tandem repeat 9 mer]: the “inhibition of binding of BCP8 to the isolated MUC-1 peptides” value with MAb BCP8 is recorded as “did not inhibit binding”.
For TSAPDTRPA [MUC-1 tandem repeat 9 mer], the “specific killing of T2 targets loaded with the peptide” value (shortened to “specific killing of T2 targets loaded”) is listed as “performed exceptionally well” in assay [1] and “specifically killed to the highest degree” in assay [1] (listed as 9 mers TSA . . .). In addition, in assay [2] (FIG. 11 and repeat experiments), the “upregulation of class I expression on T2 cells” value is “strong upregulation of class I expression”.
As to SAPDTRPAP [MUC-1 tandem repeat 9 mer], in assay [1], the “specific killing of T2 targets loaded” value is on record as “specifically killed to the highest degree”. For the same substance, in assay [2] (T2 cell assay, HLA.A2 expression (MA2.1 staining)), the “% Change in mean channel intensity” value was 48%.
As to “DSTSSPVHSGTSSPATSAPEDSTS [BP-24M, mouse MUC-1, 24-amino acid peptide, control]”, the “T-cell proliferative response against the test antigen” value in assay [3] is “no proliferative T-cell response”. In assay [4], the “IFN-γ (pg/ml) ± S.D.” value amounted to 193 ± 79 pg/mL and the “IL-4 (pg/ml) ± S.D.” value is under 31.00 pg/mL.
On to STAPPAHGV, for which the “upregulation of HLA.A2 expression on T2 cells” value in assay [5] was “higher upregulation of HLA.A2 expression on T2 cells than did”.
With “SIINFEKL [8-mer ovalbumin (OVA) peptide, negative control in CTL assay, reference compound]”, the “upregulation of HLA.A2 expression on T2 cells” value in assay [5] is “strongly upregulates HLA.A2 expression”.
As for “TSAPDTR [MUC-1 7 mer, class I-associated peptide]”, the “specific killing of T2 targets loaded” value in assay [1] is given as “weakly killed”. Also, the “δMCI, HLA.A2 expression on T2 cell surface” value in assay [2] (peptide in excess at 50 μM/well) is reported as 2.
